Assay: xn = mol fraction of the nth substance listed

OCCOCCOCCO + CS(C)=O
viscosity [mPa·s], 100 kPa
Settings | 293.15 K | 298.15 K | 303.15 K | 308.15 K | 313.15 K | 318.15 K
x1 = 0.0266 | 2.4 | 2.27 | 2.01 | 1.87 | 1.72 | 1.53
x1 = 0.0547 | 2.72 | 2.64 | 2.36 | 2.14 | 1.97 | 1.74
x1 = 0.0842 | 3.09 | 3.02 | 2.69 | 2.42 | 2.22 | 1.95
x1 = 0.1155 | 3.58 | 3.49 | 3.08 | 2.77 | 2.52 | 2.21
x1 = 0.1485 | 4.15 | 4.03 | 3.55 | 3.17 | 2.87 | 2.5
x1 = 0.1822 | 4.76 | 4.64 | 4.05 | 3.61 | 3.24 | –
x1 = 0.2192 | 5.55 | 5.38 | 4.67 | 4.13 | 3.7 | –
x1 = 0.2575 | 6.44 | 6.21 | 5.36 | 4.7 | 4.19 | –
x1 = 0.3003 | 7.57 | 7.25 | 6.2 | 5.42 | 4.79 | –
x1 = 0.3422 | 8.76 | 8.35 | 7.09 | 6.15 | 5.42 | –
x1 = 0.3888 | 10.2 | 9.68 | 8.15 | 7.03 | 6.15 | –
x1 = 0.4385 | 11.9 | 11.2 | 9.36 | 8.03 | 6.98 | –
x1 = 0.4915 | 13.9 | 13 | 10.8 | 9.17 | 7.91 | –
x1 = 0.5521 | 16.4 | 15.2 | 12.5 | 10.6 | 9.07 | –
x1 = 0.6114 | 19.2 | 17.6 | 14.3 | 12 | 10.2 | –
x1 = 0.6754 | 22.3 | 20.3 | 16.4 | 13.7 | 11.5 | –
x1 = 0.7463 | 26 | 23.6 | 18.9 | 15.7 | 13.1 | –
x1 = 0.8233 | 30.6 | 27.5 | 21.8 | 17.9 | 14.9 | –
x1 = 0.9083 | 35.9 | 32 | 25.2 | 20.5 | 16.9 | –

NC(N)=O + O
Settings | viscosity [mPa·s]
293.15 K, 100 kPa, x1 = 0.00045 | 1.018
293.15 K, 100 kPa, x1 = 0.0009 | 1.027
293.15 K, 100 kPa, x1 = 0.0013 | 1.041
293.15 K, 101 kPa, x1 = 0.0003382 | 1.002
293.15 K, 101 kPa, x1 = 0.0005695 | 1.003
293.15 K, 101 kPa, x1 = 0.0009893 | 1.003
293.15 K, 101 kPa, x1 = 0.001265 | 1.004
293.15 K, 101 kPa, x1 = 0.00161 | 1.004
293.15 K, 101 kPa, x1 = 0.002015 | 1.005
293.15 K, 101 kPa, x1 = 0.002546 | 1.006
293.15 K, 101 kPa, x1 = 0.002806 | 1.006
293.15 K, 101 kPa, x1 = 0.0486 | 0.872
293.15 K, 101 kPa, x1 = 0.0994 | 0.991
293.15 K, 101 kPa, x1 = 0.1318 | 1.087
294.75 K, 101 kPa, x1 = 0.0219 | 0.9356
294.75 K, 101 kPa, x1 = 0.04201 | 1.072
294.75 K, 101 kPa, x1 = 0.05343 | 1.101
294.75 K, 101 kPa, x1 = 0.0565 | 1.157
298.15 K, 100 kPa, x1 = 0.00045 | 0.911
298.15 K, 100 kPa, x1 = 0.0009 | 0.927
298.15 K, 100 kPa, x1 = 0.0013 | 0.94
298.15 K, 101 kPa, x1 = 0.0003802 | 0.8909
298.15 K, 101 kPa, x1 = 0.0009168 | 0.8918
298.15 K, 101 kPa, x1 = 0.001355 | 0.8925
298.15 K, 101 kPa, x1 = 0.00169 | 0.893
298.15 K, 101 kPa, x1 = 0.001993 | 0.8935
298.15 K, 101 kPa, x1 = 0.00247 | 0.8943
298.15 K, 101 kPa, x1 = 0.00308 | 0.895
298.15 K, 101 kPa, x1 = 0.003109 | 0.8953
298.15 K, 101 kPa, x1 = 0.00368 | 0.8962
298.15 K, 101 kPa, x1 = 0.0259 | 0.939
298.15 K, 101 kPa, x1 = 0.0389 | 0.969
298.15 K, 101 kPa, x1 = 0.05204 | 1.035
298.15 K, 101 kPa, x1 = 0.08275 | 1.088
298.15 K, 101 kPa, x1 = 0.1302 | 1.252
298.15 K, 101 kPa, x1 = 0.156 | 1.348
298.15 K, 101 kPa, x1 = 0.2047 | 1.561
303.15 K, 100 kPa, x1 = 0.00045 | 0.824
303.15 K, 100 kPa, x1 = 0.0009 | 0.839
303.15 K, 100 kPa, x1 = 0.0013 | 0.849
303.15 K, 101 kPa, x1 = 0.000464 | 0.798
303.15 K, 101 kPa, x1 = 0.001107 | 0.799
303.15 K, 101 kPa, x1 = 0.001607 | 0.7999
303.15 K, 101 kPa, x1 = 0.002024 | 0.8005
303.15 K, 101 kPa, x1 = 0.002271 | 0.8009
303.15 K, 101 kPa, x1 = 0.002742 | 0.8016
303.15 K, 101 kPa, x1 = 0.003158 | 0.8024
303.15 K, 101 kPa, x1 = 0.003416 | 0.8028
308.15 K, 100 kPa, x1 = 0.00045 | 0.744
308.15 K, 100 kPa, x1 = 0.0009 | 0.755
308.15 K, 100 kPa, x1 = 0.0013 | 0.77
308.15 K, 101 kPa, x1 = 0.0003775 | 0.7197
308.15 K, 101 kPa, x1 = 0.0006463 | 0.7201
308.15 K, 101 kPa, x1 = 0.001149 | 0.721
308.15 K, 101 kPa, x1 = 0.001425 | 0.7214
308.15 K, 101 kPa, x1 = 0.001907 | 0.7223
308.15 K, 101 kPa, x1 = 0.002218 | 0.7227
308.15 K, 101 kPa, x1 = 0.002872 | 0.7238
308.15 K, 101 kPa, x1 = 0.003309 | 0.7246
308.15 K, 101 kPa, x1 = 0.018 | 0.65
308.15 K, 101.33 kPa, x1 = 0.0177 | 0.7612
308.15 K, 101.33 kPa, x1 = 0.03479 | 0.7944
308.15 K, 101.33 kPa, x1 = 0.05127 | 0.8302
308.15 K, 101.33 kPa, x1 = 0.06723 | 0.8754
308.15 K, 101.33 kPa, x1 = 0.08263 | 0.916
308.15 K, 101.33 kPa, x1 = 0.09755 | 0.9544
308.15 K, 101.33 kPa, x1 = 0.112 | 1.02
308.15 K, 101.33 kPa, x1 = 0.126 | 1.049
308.15 K, 101.33 kPa, x1 = 0.1395 | 1.077
313.15 K, 100 kPa, x1 = 0.00045 | 0.678
313.15 K, 100 kPa, x1 = 0.0009 | 0.692
313.15 K, 100 kPa, x1 = 0.0013 | 0.712
313.15 K, 101.33 kPa, x1 = 0.0177 | 0.6912
313.15 K, 101.33 kPa, x1 = 0.03479 | 0.7169
313.15 K, 101.33 kPa, x1 = 0.05127 | 0.7568
313.15 K, 101.33 kPa, x1 = 0.06723 | 0.7895
313.15 K, 101.33 kPa, x1 = 0.08263 | 0.8365
313.15 K, 101.33 kPa, x1 = 0.09755 | 0.8702
313.15 K, 101.33 kPa, x1 = 0.112 | 0.914
313.15 K, 101.33 kPa, x1 = 0.126 | 0.9479
313.15 K, 101.33 kPa, x1 = 0.1395 | 0.9819
318.15 K, 101 kPa, x1 = 0.018 | 0.533
318.15 K, 101.33 kPa, x1 = 0.0177 | 0.6293
318.15 K, 101.33 kPa, x1 = 0.03479 | 0.6557
318.15 K, 101.33 kPa, x1 = 0.05127 | 0.6939
318.15 K, 101.33 kPa, x1 = 0.06723 | 0.7263
318.15 K, 101.33 kPa, x1 = 0.08263 | 0.7712
318.15 K, 101.33 kPa, x1 = 0.09755 | 0.7978
318.15 K, 101.33 kPa, x1 = 0.112 | 0.8423
318.15 K, 101.33 kPa, x1 = 0.126 | 0.8735
318.15 K, 101.33 kPa, x1 = 0.1395 | 0.9047
323.15 K, 101.33 kPa, x1 = 0.0177 | 0.5841
323.15 K, 101.33 kPa, x1 = 0.03479 | 0.6023
323.15 K, 101.33 kPa, x1 = 0.05127 | 0.6485
323.15 K, 101.33 kPa, x1 = 0.06723 | 0.6694
323.15 K, 101.33 kPa, x1 = 0.08263 | 0.7012
323.15 K, 101.33 kPa, x1 = 0.09755 | 0.7261
323.15 K, 101.33 kPa, x1 = 0.112 | 0.7788
323.15 K, 101.33 kPa, x1 = 0.126 | 0.803
323.15 K, 101.33 kPa, x1 = 0.1395 | 0.8273

— the CheMixHub viscosity set
